The results in this text go back to ChEMBL document CHEMBL3045901, “Aryldiones incorporating a [1,4,5]oxadiazepane ring. Part 2: chemistry and biology of the cereal herbicide pinoxaden” (Pest Manag Sci, 2011).

Type in all cases: functional
Assay [1] deals with Alopecurus myosuroides. Put plainly: Herbicidal activity against Alopecurus myosuroides assessed as weed control at 30 g/ha under greenhouse measured after 21 days by post-emergence test.
Assay [2] has as its system Setaria faberi. Description: Herbicidal activity against Setaria faberi (Giant Foxtail) assessed as weed control at 30 g/ha under greenhouse measured after 21 days by post-emergence test.
Assay [3] concerns Lolium perenne. Description: Herbicidal activity against Lolium perenne (perennial ryegrass) assessed as weed control at 30 g/ha under greenhouse measured after 21 days by post-emergence test.
Assay [4] has as its system Triticum aestivum. Put plainly: Herbicidal activity against Triticum aestivum (wheat) assessed as weed control at 30 g/ha under greenhouse measured after 21 days by post-emergence test.
Assay [5] concerns Hordeum vulgare. Put plainly: Herbicidal activity against Hordeum vulgare (barley) assessed as weed control at 30 g/ha under greenhouse measured after 21 days by post-emergence test.
The subject of assay [6] is Avena fatua. Put plainly: Herbicidal activity against Avena fatua assessed as weed control at 30 g/ha under greenhouse measured after 21 days by post-emergence test.

For the compound `Cc1cc(C)c(C2C(=O)N3CCOCCN3C2=O)c(C)c1`, the Activity in assay [1] was 10%; in assay [2], 50%; in assay [3], 80%; in assay [4], 0%; in assay [5], 0%; in assay [6] it was 60%.
Take `COc1cc(C)cc(Br)c1C1C(=O)N2CCOCCN2C1=O`: the Activity in assay [1] worked out at 20%; in assay [2], 60%; in assay [3], 100%; in assay [4], 10%; in assay [5] it was 20%; in assay [6], 60%.
Regarding `CCc1cc(C)cc(CC)c1C1C(=O)N2C[C@H]3COC[C@H]3CN2C1=O` (stereo partly drawn), the Activity is given as 100% in assay [1]; 100% in assay [2]; 90% in assay [3]; 40% in assay [4]; 0% in assay [5]; 100% in assay [6].
For `Cc1cc(Br)c(C2C(=O)N3CCOCCN3C2=O)c(Br)c1`, the Activity in assay [1] is listed as 0%; in assay [2] it was 10%; in assay [3], 10%; in assay [4], 0%; in assay [5] it was 0%; in assay [6], 40%.
On to `Cc1cc(C)c(C2C(=O)N3CCOCCN3C2=O)c(Br)c1`, for which the Activity is reported as 0% in assay [1]; 40% in assay [2]; 90% in assay [3]; 0% in assay [4]; 0% in assay [5]; 40% in assay [6].
For the compound `CCc1cc(C)cc(C)c1C1C(=O)N2CCOCCN2C1=O`, the Activity in assay [1] is recorded as 60%; in assay [2] it was 60%; in assay [3], 60%; in assay [4] it was 20%; in assay [5], 40%; in assay [6], 80%.
For `CCCc1cc(C)cc(C)c1C1C(=O)N2CCOCCN2C1=O`, the Activity in assay [1] amounted to 20%; in assay [2], 40%; in assay [3] it was 60%; in assay [4], 0%; in assay [5] it was 0%; in assay [6], 80%.
Turning to `Cc1cc(C)c(C2C(=O)N3CCOCCN3C2=O)c(C(C)C)c1`, the Activity in assay [1] was determined as 0%; in assay [2], 20%; in assay [3] it was 50%; in assay [4], 0%; in assay [5], 0%; in assay [6] it was 50%.
Turning to `Cc1cc(C)c(C2C(=O)N3CCOCCN3C2=O)c(C2CC2)c1`, the Activity came to 0% in assay [1]; 60% in assay [2]; 50% in assay [3]; 0% in assay [4]; 0% in assay [5]; 90% in assay [6].
Regarding `C#Cc1cc(C)cc(C)c1C1C(=O)N2CCOCCN2C1=O`, the Activity is reported as 80% in assay [1]; 100% in assay [2]; 90% in assay [3]; 50% in assay [4]; 40% in assay [5]; 100% in assay [6].
On to `CC#Cc1cc(C)cc(C)c1C1C(=O)N2CCOCCN2C1=O`, for which the Activity in assay [1] turned out to be 0%; in assay [2] it was 40%; in assay [3] it was 60%; in assay [4], 10%; in assay [5], 10%; in assay [6], 40%.
As to `CCc1cc(C)c(C2C(=O)N3CCOCCN3C2=O)c(CC)c1`, the Activity worked out at 0% in assay [1]; 60% in assay [2]; 60% in assay [3]; 0% in assay [4]; 0% in assay [5]; 50% in assay [6].
As for `C#Cc1cc(C)c(C2C(=O)N3CCOCCN3C2=O)c(CC)c1`, the Activity in assay [1] turned out to be 20%; in assay [2], 20%; in assay [3], 10%; in assay [4] it was 0%; in assay [5], 10%; in assay [6], 20%.
As to `CCc1cccc(CC)c1C1C(=O)N2CCOCCN2C1=O`, the Activity was 0% in assay [1]; 90% in assay [2]; 0% in assay [3]; 0% in assay [4]; 0% in assay [5]; 0% in assay [6].
`CCc1cc(CC)c(C2C(=O)N3CCOCCN3C2=O)c(CC)c1`: the Activity in assay [1] amounted to 40%; in assay [2] it was 40%; in assay [3], 60%; in assay [4], 0%; in assay [5] it was 0%; in assay [6], 60%.
As for `CCc1cc(I)cc(CC)c1C1C(=O)N2CCOCCN2C1=O`, the Activity in assay [1], in assay [2], in assay [3], in assay [4], in assay [5] and in assay [6] was 0% each time.
For the compound `CCc1cc(-c2ccccc2)cc(CC)c1C1C(=O)N2CCOCCN2C1=O`, the Activity in assay [1] came to 90%; in assay [2], 80%; in assay [3] it was 80%; in assay [4] it was 80%; in assay [5], 80%; in assay [6] it was 90%.
As for `CCCc1cc(C)cc(CCC)c1C1C(=O)N2CCOCCN2C1=O`, the Activity stood at 50% in assay [1]; 90% in assay [2]; 0% in assay [3]; 0% in assay [4]; 0% in assay [5]; 80% in assay [6].
Turning to `C#Cc1cc(C)cc(CC)c1C1C(=O)N2CCOCCN2C1=O`, the Activity is on record as 100% in assay [1]; 100% in assay [2]; 100% in assay [3]; 50% in assay [4]; 50% in assay [5]; 100% in assay [6].
With `C#Cc1cc(C)cc(C#C)c1C1C(=O)N2CCOCCN2C1=O`, the Activity in assay [1] was 80%; in assay [2], 90%; in assay [3], 80%; in assay [4], 20%; in assay [5] it was 20%; in assay [6], 90%.
As for `CCc1cc(C)cc(OC)c1C1C(=O)N2CCOCCN2C1=O`, the Activity is reported as 90% in assay [1]; 100% in assay [2]; 80% in assay [3]; 50% in assay [4]; 50% in assay [5]; 90% in assay [6].
For `C#Cc1cc(C)cc(OC)c1C1C(=O)N2CCOCCN2C1=O`, the Activity was determined as 20% in assay [1]; 90% in assay [2]; 100% in assay [3]; 0% in assay [4]; 0% in assay [5]; 0% in assay [6].
With `CCc1cc(-c2ccccc2)cc(OC)c1C1C(=O)N2CCOCCN2C1=O`, the Activity in assay [1] was 80%; in assay [2] it was 90%; in assay [3], 90%; in assay [4] it was 90%; in assay [5], 90%; in assay [6] it was 100%.
